Values quoted from earlier work as cited in patent US11938211B2, “Process for coloring keratinous material comprising the use of an organosilicon compound, an effect pigment, a further coloring compound and a film-forming polymer I” (Henkel AG & Co. KGaA, priority 2019, dated 2024).

Details: 25° C.

solubility in water (in words) | SMILES | solubility in water
 | Nc1cc(S(=O)(=O)[O-])cc2cc(S(=O)(=O)[O-])c(N=Nc3ccccc3)c(O)c12.[Na+].[Na+] [Acid Red 33, disodium salt of 5-amino-4-hydroxy-3-(phenylazo)-naphthalene-2,7-disulphonate] | 2500 µg/mL
 | O=S(=O)([O-])c1ccc(N=Nc2c(O)ccc3ccccc23)cc1.[Na+] [Acid Orange 7, sodium salt of 4-[(2-hydroxy-1-naphthyl)azo]benzene sulphonate] | more than 7 g/L
highly soluble | O=C([O-])C1=NN(c2ccc(S(=O)(=O)[O-])cc2)C(=O)C1N=Nc1ccc(S(=O)(=O)[O-])cc1.[Na+].[Na+].[Na+] (centres unmarked) [Acid Yellow 23, trisodium salt of 4,5-dihydro-5-oxo-1-(4-sulfophenyl)-4-((4-sulfophenyl)azo)-1H-pyrazole-3-carboxylic acid] | 
 | CCN(Cc1cccc(S(=O)(=O)[O-])c1)c1ccc(C(=C2C=CC(=[N+](CC)Cc3cccc(S(=O)(=O)[O-])c3)C=C2)c2ccccc2S(=O)(=O)[O-])cc1.[Na+].[Na+] [Acid Blue 9] | more than 20 % by weight
 | O=C([O-])c1c(Cl)c(Cl)c(Cl)c(Cl)c1-c1c2c(Br)cc(=O)c(Br)c-2oc2c(Br)c(O)cc(Br)c12.O=C([O-])c1c(Cl)c(Cl)c(Cl)c(Cl)c1-c1c2c(Br)cc(=O)c(Br)c-2oc2c(Br)c(O)cc(Br)c12.[Na+].[Na+] [Acid Red 92, disodium salt of 3,4,5,6-tetrachloro-2-(1,4,5,8-tetrabromo-6-hydroxy-3-oxoxanthen-9-yl)benzoic acid] | greater than 10 g/L
